Results on 35 molecules are retold here after US10815222B2, “Compounds for use in the treatment of kinetoplastid infection” (C.N.C.C.S. S.c.a.r.l. COLLEZIONE NAZIONALE DEI COMPOSTI …, priority 2016, dated 2020).

Some results are limits rather than exact numbers.

In the assay the test system is Bloodstream form of Trypanosoma brucei, strain Lister 427. Description: Trypanosoma brucei growth inhibition assay (CellTiter-Glo, 24 h). Type of assay: cell-based. Particulars: Trypanosoma brucei; T. Brucei Growth Inibition Assay, class symbols; read-out: T. Brucei GI EC50. The method, then: Bloodstream form of Trypanosoma brucei, strain Lister 427 (provided by Prof. Miguel Navarro, Instituto de Parasitologia y Biomedicina “Lopez-Neyra” Avda. Conocimiento S/N Parque Tecnologico Ciencias de la Salud—Spain; ref. Navarro M. and Cross G. A. M. Molecular and Cellular Biology, 1996, Vol. 16, No. 7, pp. 3615-3625) were grown in IMDM Iscove's Modified Dulbecco's Medium (SIGMA #17633) supplemented with: 3.024 g/l sodium bicarbonate, hypoxanthine 1 mM, thymidine 0.16 mM, bathocuprione sulfonic acid 0.05 mM, cysteine 1.5 mM, ß-mercaptoethanol […] and 10% foetal bovine serum (heat-inactivated at 56° C. for 30 min). Parasites were grown at 37° C. in flasks with vented caps in a 5% CO2 incubator to a maximum cell density of about 2×10^6/ml and diluted every two-three days.
The compounds of the invention were dissolved in DMSO and transferred to assay plates by acoustic droplet ejection (ATS-100, EDC Biosystems, USA) in order to obtain an appropriate concentration and to keep the concentration of DMSO below or equal to 0.25% in the final assay volume of 30 μL. 1500 parasites resuspended in 30 μL of culture medium were then transferred to each well of a 384-well plate.
After an incubation period of 24 hours at 37° C., each well is added 15 μl of CellTiter-Glo® Reagent (Promega) and incubated at room temperature. 5-10 min post incubation, the plate is read using a luminometer (ViewLux®). A known inhibitor of the growth of T. brucei was used as the reference positive control.
With `COc1nc2ccccc2cc1-c1cnc(C2CN(S(C)(=O)=O)CCN2C(=O)Cc2ccccc2)[nH]1` (centres unmarked), the EC50 lay within 1.01 to 5 µM. As for `COc1ccc2nc(C(F)(F)F)n(CC(=O)N3CCN(CCc4csc(C)n4)C[C@H]3c3ncc(-c4cc5ccccc5nc4OC)[nH]3)c2c1` [(S)-2-(6-methoxy-2-(trifluoromethyl)-1H-benzo[d]imidazol-1-yl)-1-(2-(5-(2-methoxyquinolin-3-yl)-1H-imidazol-2-yl)-4-(2-(2-methylthiazol-4-yl)ethyl)piperazin-1-yl)ethan-1-one], the EC50 was less than 0.1 µM. On to `COc1ccc2nc(C(F)(F)F)n(CC(=O)N3CCN(CC4CCOC4)C[C@H]3c3nnc(-c4cc5ccccc5nc4OC)[nH]3)c2c1` (stereo partly drawn) [2-(6-methoxy-2-(trifluoromethyl)-1H-benzo[d]imidazol-1-yl)-1-((2S)-2-(5-(2-methoxyquinolin-3-yl)-4H-1,2,4-triazol-3-yl)-4-((tetrahydrofuran-3-yl)methyl)piperazin-1-yl)ethan-1-one], for which the EC50 is less than 0.1 µM.

Consider `COc1ccc(CC(=O)N2CCN(C)CC2c2ncc(-c3ccc4ccccc4c3)[nH]2)cc1` (centres unmarked), for which the EC50 fell in the range of 1.01 to 5 µM.

`CCCCCCN1CCN(C(=O)Cc2c(C)[nH]c3ccccc23)C(c2ncc(-c3ccc4ccccc4c3)[nH]2)C1` (centres unmarked): the EC50 lay within 0.51 to 1 µM. The result for `COc1nc2ccccc2cc1-c1cnc(C2CN(CC3CCOC3)CCN2C(=O)Cc2c[nH]c3ccncc23)[nH]1` (centres unmarked) reads 1.01 to 5 µM. With `CCC(=O)CCCN1CCN(Cc2ccccc2)C(c2ncc(-c3ccc4ccccc4c3)[nH]2)C1` (centres unmarked) [6-(4-benzyl-3-(5-(naphthalen-2-yl)-1H-imidazol-2-yl)piperazin-1-yl)hexan-3-one], the EC50 was in the range of 1.01 to 5 µM.

Turning to `COc1ccc2nc(C)n(CC(=O)N3CCN(C[C@H]4CCOC4)CC3c3ncc(-c4ccc(-c5ccccc5)nc4OC)[nH]3)c2c1` (some centres unmarked), the EC50 is 0.1 to 0.5 µM. Under `COc1nc2ccccc2cc1-c1cnc([C@@H]2CN(Cc3ncco3)CCN2C(=O)Cn2c(C(F)(F)F)nc3ccccc32)[nH]1` [(S)-1-(2-(5-(2-methoxyquinolin-3-yl)-1H-imidazol-2-yl)-4-(oxazol-2-ylmethyl)piperazin-1-yl)-2-(2-(trifluoromethyl)-1H-benzo[d]imidazol-1-yl)ethan-1-one] stands less than 0.1 µM. The result for `CN1CCN(C(=O)Cc2c[nH]c3ncccc23)C(c2ncc(-c3ccc4ccccc4c3)[nH]2)C1` (centres unmarked) reads 1.01 to 5 µM; that for `COc1nc2ccccc2cc1-c1cnc([C@@H]2CN(CC3CCOC3)CCN2C(=O)Cn2c(CC(F)(F)F)nc3ccccc32)[nH]1` (some centres unmarked), 0.1 to 0.5 µM. The result for `CCC(=O)CCCN1CCN(C(=O)Cc2ccccc2)C(c2ncc(-c3ccc4ccccc4c3)[nH]2)C1` (centres unmarked) reads 1.01 to 5 µM. Consider `COc1nc2ccccc2cc1-c1cnc(C2CCN(Cc3ccn(C)n3)CCN2C(=O)Cc2c(C)[nH]c3ccc(F)cc23)[nH]1` (centres unmarked) [2-(5-fluoro-2-methyl-1H-indol-3-yl)-1-(7-(5-(2-methoxyquinolin-3-yl)-1H-imidazol-2-yl)-4-((1-methyl-1H-pyrazol-3-yl)methyl)-1,4-diazepan-1-yl)ethan-1-one], for which the EC50 was less than 0.1 µM. Take `COc1ccc2nc(C(F)(F)F)n(CC(=O)N3CCN(Cc4cnccn4)CCC3c3ncc(-c4cc5ccccc5nc4OC)[nH]3)c2c1` (centres unmarked) [2-(6-methoxy-2-(trifluoromethyl)-1H-benzo[d]imidazol-1-yl)-1-(7-(5-(2-methoxyquinolin-3-yl)-1H-imidazol-2-yl)-4-(pyrazin-2-ylmethyl)-1,4-diazepan-1-yl)ethan-1-one]: the EC50 was less than 0.1 µM.

Regarding `COc1nc2ccccc2cc1-c1cnc(C2CN(CC3CCOC3)CCN2C(=O)c2cnc3ccccc3c2)[nH]1` (centres unmarked), the EC50 lay within 1.01 to 5 µM. The result for `COc1ccc2nc(C(F)(F)F)n(CC(=O)N3CCN(C4CCCC4)CCC3c3ncc(-c4cc5ccccc5nc4OC)[nH]3)c2c1` (centres unmarked) reads 0.1 to 0.5 µM; that for `COc1nc2ccccc2cc1-c1cnc(C2CN(CC3CCOC3)CCN2C(=O)Cn2c(C)nc3cc(F)ccc32)[nH]1` (centres unmarked), 0.1 to 0.5 µM; that for `CCC(=O)CCCN1CCN(C(=O)Cc2c(C)[nH]c3ccc(OC)cc23)C(c2ncc(-c3cc4ccccc4nc3OC)o2)C1` (centres unmarked), 1.01 to 5 µM. The result for `COc1nc2ccccc2cc1-c1cnc([C@@H]2CN(CC(F)(F)F)CCN2C(=O)Cn2c(C(F)(F)F)nc3ccccc32)[nH]1` [(S)-1-(2-(5-(2-methoxyquinolin-3-yl)-1H-imidazol-2-yl)-4-(2,2,2-trifluoroethyl)piperazin-1-yl)-2-(2-(trifluoromethyl)-1H-benzo[d]imidazol-1-yl)ethan-1-one] reads less than 0.1 µM; that for `COc1ccc2nc(C(F)(F)F)n(CC(=O)N3CCN(CCn4cccn4)C[C@H]3c3ncc(-c4cc5ccccc5nc4OC)[nH]3)c2c1` [(S)-1-(4-(2-(1H-pyrazol-1-yl)ethyl)-2-(5-(2-methoxyquinolin-3-yl)-1H-imidazol-2-yl)piperazin-1-yl)-2-(6-methoxy-2-(trifluoromethyl)-1H-benzo[d]imidazol-1-yl)ethan-1-one], less than 0.1 µM. The result for `COc1ccc2onc(CC(=O)N3CCN(CC4CCOC4)C[C@H]3c3ncc(-c4cc5ccccc5nc4OC)[nH]3)c2c1` (some centres unmarked) reads 0.1 to 0.5 µM; that for `COc1nc2ccccc2cc1-c1cnc(C2CN(CC3CC3)CCN2C(=O)Cc2c(C)[nH]c3ccc(F)cc23)[nH]1` (centres unmarked), 0.1 to 0.5 µM; that for `COc1ccc2nc(C)n(CC(=O)N3CCC(O)C[C@H]3c3ncc(-c4cc5ccccc5nc4OC)[nH]3)c2c1` (some centres unmarked), 0.51 to 1 µM. For the molecule `CCC(=O)CCCN1CCN(C(=O)c2ccccc2)C(c2ncc(-c3ccc4ccccc4c3)[nH]2)C1` (centres unmarked) [6-(4-benzoyl-3-(5-(naphthalen-2-yl)-1H-imidazol-2-yl)piperazin-1-yl)hexan-3-one], the EC50 is 1.01 to 5 µM. Under `COc1nc2ccccc2cc1-c1cnc([C@@H]2CN(C3CCC(F)(F)CC3)CCN2C(=O)Cn2c(C(F)(F)F)nc3ccccc32)[nH]1` [(S)-1-(4-(4,4-difluorocyclohexyl)-2-(5-(2-methoxyquinolin-3-yl)-1H-imidazol-2-yl)piperazin-1-yl)-2-(2-(trifluoromethyl)-1H-benzo[d]imidazol-1-yl)ethan-1-one] stands less than 0.1 µM. The result for `O=C(Cc1nc2ccccc2o1)N1CCN(CC2CCOC2)CC1c1ncc(-c2ccc3ccccc3c2)[nH]1` (centres unmarked) reads 0.51 to 1 µM. For `COc1ccc2nc(C(F)(F)F)n(CC(=O)N3CCN(Cc4cnn(C)c4C)CCC3c3ncc(-c4cc5ccccc5nc4OC)[nH]3)c2c1` (centres unmarked), the EC50 lay in the range of 0.1 to 0.5 µM. For `COc1ccc2nc(C(F)(F)F)n(CC(=O)N3CCN(C4CCOCC4)CCC3c3ncc(-c4cc5ccccc5nc4OC)[nH]3)c2c1` (centres unmarked) [2-(6-methoxy-2-(trifluoromethyl)-1H-benzo[d]imidazol-1-yl)-1-(7-(5-(2-methoxyquinolin-3-yl)-1H-imidazol-2-yl)-4-(tetrahydro-2H-pyran-4-yl)-1,4-diazepan-1-yl)ethan-1-one], the EC50 was less than 0.1 µM. Under `COc1ccc2nc(C(F)(F)F)n(CC(=O)N3CCN(CCc4ccccn4)C[C@H]3c3ncc(-c4cc5ccccc5nc4OC)[nH]3)c2c1` [(S)-2-(6-methoxy-2-(trifluoromethyl)-1H-benzo[d]imidazol-1-yl)-1-(2-(5-(2-methoxyquinolin-3-yl)-1H-imidazol-2-yl)-4-(2-(pyridin-2-yl)ethyl)piperazin-1-yl)ethan-1-one] stands less than 0.1 µM. The result for `COc1ccc2nc(C)n(CC(=O)N3CCN(Cc4nccs4)CCC3c3ncc(-c4cc5ccccc5nc4OC)[nH]3)c2c1` (centres unmarked) [2-(6-methoxy-2-methyl-1H-benzo[d]imidazol-1-yl)-1-(7-(5-(2-methoxyquinolin-3-yl)-1H-imidazol-2-yl)-4-(thiazol-2-ylmethyl)-1,4-diazepan-1-yl)ethan-1-one] reads less than 0.1 µM.

Consider `COc1ccc2nc(C(F)(F)F)n(CC(=O)N3CCN(CC4CCOC4)CCC3c3ncc(-c4cc5ccccc5nc4OC)[nH]3)c2c1` (centres unmarked) [2-(6-methoxy-2-(trifluoromethyl)-1H-benzo[d]imidazol-1-yl)-1-(7-(5-(2-methoxyquinolin-3-yl)-1H-imidazol-2-yl)-4-((tetrahydrofuran-3-yl)methyl)-1,4-diazepan-1-yl)ethan-1-one], for which the EC50 is less than 0.1 µM. The result for `COc1ccc2nc(C)n(CC(=O)N3CCN(Cc4ccn(C)n4)CCC3c3ncc(-c4cc5ccccc5nc4OC)[nH]3)c2c1` (centres unmarked) [2-(6-methoxy-2-methyl-1H-benzo[d]imidazol-1-yl)-1-(7-(5-(2-methoxyquinolin-3-yl)-1H-imidazol-2-yl)-4-((1-methyl-1H-pyrazol-3-yl)methyl)-1,4-diazepan-1-yl)ethan-1-one] reads less than 0.1 µM. For the molecule `COc1cccc(CCC(=O)N2CCN(CC3CCOC3)CC2c2ncc(-c3cc4ccccc4nc3OC)[nH]2)c1` (centres unmarked), the half-maximal effective concentration (EC50) lay in the range of 1.01 to 5 µM. The result for `COc1ccc2nc(C(F)(F)F)n(CC(=O)N3CCN(Cc4cnc(C)s4)CCC3c3ncc(-c4cc5ccccc5nc4OC)[nH]3)c2c1` (centres unmarked) reads 0.1 to 0.5 µM; that for `COc1ccc2nc(C(F)(F)F)n(CC(=O)N3CCC(O)C[C@H]3c3ncc(-c4cc5ccccc5nc4OC)[nH]3)c2c1` (stereo partly drawn) [1-((2S)-4-hydroxy-2-(5-(2-methoxyquinolin-3-yl)-1H-imidazol-2-yl)piperidin-1-yl)-2-(6-methoxy-2-(trifluoromethyl)-1H-benzo[d]imidazol-1-yl)ethan-1-one], less than 0.1 µM.
